Values of other authors in paper PMC3949622, “Macrocyclic Pyridyl Polyoxazoles: Structure-Activity Studies of the Aminoalkyl Side-Chain on G-Quadruplex Stabilization and Cytotoxic Activity” (Molecules, 2013).
Values joined by “and” are separate entries in the source; they are usually repeats but may differ in a detail not shown here. Equal values may be shown once. Read-outs that look alike come from different tables or passages of the source. Marks after values point to notes of the source that are not given here.

Assays:
[1] = tested on: human breast cancer xenograft (MDA-MB-435); conditions: MDA-MB-435 xenograft in athymic nude mice; ref [21]; cited from earlier work
Text: (§1) The development of G-quadruplex stabilizers as a potential new class of anticancer agents hinges on the ability to design compounds that stabilize only G-quadruplexes and not other nucleic acid structures such as duplex or triplex DNA [15]. While a diverse array of compounds have been reported to stabilize G-quadruplex DNA [1], most also have some ability to stabilize duplex DNA. The natural product telomestatin for example, is reported to stabilize G-quadruplex DNA with 70:1 selectivity over duplex DNA [16, 17]. In contrast, the synthetic macrocyclic hexaoxazole HXDV (Figure 1) demonst ...

KB3-1 cells = conditions: ref [21], cited from earlier work
Text: as §1, with “Table 2 Relative cytotoxic activities. IC50 values (μM) ^a. | column: KB3-1 wt. || The development” for “The development”

[2] = tested on: human telomeric sequence d[T2G3(T2AG3)3A] (hTel) quadruplex DNA; conditions: change in transition temperature of hTel quadruplex DNA; ref [21]; cited from earlier work
Description: Table 1 Effect of various pyridyl polyoxazoles on the thermal stabilities of duplex and quadruplex DNA. | column: hTel -Quadruplex DNA / ΔTtran (°C)^a || The results observed with the hTel quadruplex DNA however, stand in stark contrast with the ST duplex DNA results. In the series of three 4-phenyl substituted analogs compound 8 and 11 strongly stabilize G-quadruplex DNA by 20.5 and 24.6 °C respectively. Compound 8 has the tertiary amine directly connected to the phenyl while in 11 the amine is separated from the phenyl ring by two methylene groups. In contrast, the 3-dimethylaminopropyl analog 12 stabilizes G-quadruplex DNA to a much lesser extent. When the side-chain is attached to the 5-position of the phenyl ring the results are quite dram ...

RPMI 8402 cells = conditions: ref [21], cited from earlier work
Text: as §1, with “Table 2 Relative cytotoxic activities. IC50 values (μM) ^a. | column: RPMI 8402 || The development” for “The development”

[3] = tested on: Salmon testes (ST) duplex DNA; conditions: change in transition temperature of ST duplex DNA; ref [21]; cited from earlier work
Text: Table 1 Effect of various pyridyl polyoxazoles on the thermal stabilities of duplex and quadruplex DNA. | column: Salmon Testes Duplex DNA / ΔTtran (°C) ^a

## CN(C)CCc1cc2cc(c1)CNC(=O)c1coc(n1)-c1coc(n1)-c1cccc(n1)-c1nc(co1)-c1nc(co1)C(=O)NC2 [Compound 2]
[1]
  %T/C (average tumor volumes of treated/control animals): 27.7%
KB3-1 cells; range given for analogs 1 and 2 together, read-out: IC50 against KB3-1 cells
  IC50: 30 to 40 nM
KB3-1 cells; read-out: IC50, KB3-1 wt.
  IC50: 40 nM
[2]
  ΔTtran, hTel quadruplex DNA: 20.5 °C and 20.5 ^b °C
RPMI 8402 cells; range given for analogs 1 and 2 together, read-out: IC50 against RPMI 8402 cells
  IC50: 90 to 180 nM
RPMI 8402 cells; read-out: IC50, RPMI 8402
  IC50: 180 nM
[3]
  ΔTtran, salmon testes duplex DNA: 0 ^b °C
